This test deals with IKZF2 (Homo sapiens (Human), UniProt Q96SW2+Q9UKS7). Briefly: IKZF2 HiBiT Assay (Jurkat-IKZF2-HiBiT cell line). Type of test: cell-based. As to conditions: Jurkat-IKZF2-HiBiT cells, 24 hours; for DC50: read-out: HiBit assay degradation analysis DC50; for Dmax: read-out: HiBit assay degradation analysis Dmax. As for the experimental part:
Degradation of IKZF2 protein is determined by IKZF2 HiBiT assay using the Jurkat-IKZF2-HiBiT (Promega) cell line. Briefly, cells are seeded in culture medium. Compounds are serially diluted in culture medium, and certain volume of the diluted compounds is added to the appropriate well of the plate. After the addition of compounds, the cells are incubated. At the end of treatment, Nano-Glo HiBiT Lytic Detection Reagent (Promega) is added to each well, and then the plates are incubated at room temperature for a certain time period. The luminescent signal is measured using a CALRIOstar plate reader (BMG Labtech). The readings are normalized to the DMSO-treated cells and the IC50 is calculated by nonlinear regression (four parameters sigmoid fitted with variable slope, least squares fit, and no constraint) analysis using the GraphPad Prism 8 software.
Degradation of IKZF2 protein was determined by IKZF2 HiBiT assay using the Jurkat-IKZF2-HiBiT (Promega) cell line. […] Compounds were serially diluted in culture medium, and 20 μl of the diluted compounds were added to the appropriate wells of the plate. After the addition of compounds, the cells were incubated at 37° C. in an atmosphere of 5% CO2 for 24 hours. At the end of treatment, 40 ul of Nano-Glo HiBiT Lytic Detection Reagent (Promega) was added to each well, and then the plates were incubated at room temperature for 10-20 minutes. The luminescent signal was measured using a CALRIOstar plate reader (BMG Labtech). The readings were normalized to the DMSO-treated cells and the IC50 was calculated by nonlinear regression (four parameters sigmoid fitted with variable slope, least squares fit, and no constraint) analysis using the GraphPad Prism 8 software.

The term DC50 denotes the midpoint of the concentration-degradation curve. As usually defined, the Dmax is the greatest extent of degradation seen.

IKZF2, sequence (Q9UKS7 whole entry): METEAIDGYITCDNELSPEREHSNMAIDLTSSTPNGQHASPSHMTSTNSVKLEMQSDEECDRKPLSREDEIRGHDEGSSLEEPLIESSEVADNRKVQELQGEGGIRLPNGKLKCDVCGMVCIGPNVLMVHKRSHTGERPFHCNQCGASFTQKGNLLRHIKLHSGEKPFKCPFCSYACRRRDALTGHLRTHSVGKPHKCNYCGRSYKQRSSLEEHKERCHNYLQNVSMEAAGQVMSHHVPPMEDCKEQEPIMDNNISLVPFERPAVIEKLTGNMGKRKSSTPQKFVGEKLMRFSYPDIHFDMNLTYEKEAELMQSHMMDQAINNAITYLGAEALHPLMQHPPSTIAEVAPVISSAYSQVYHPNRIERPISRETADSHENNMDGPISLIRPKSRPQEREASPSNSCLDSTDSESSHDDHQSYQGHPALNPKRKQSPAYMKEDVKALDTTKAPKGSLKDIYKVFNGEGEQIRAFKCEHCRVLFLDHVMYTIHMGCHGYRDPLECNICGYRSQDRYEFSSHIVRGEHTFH
IKZF2, sequence (Q96SW2 whole entry): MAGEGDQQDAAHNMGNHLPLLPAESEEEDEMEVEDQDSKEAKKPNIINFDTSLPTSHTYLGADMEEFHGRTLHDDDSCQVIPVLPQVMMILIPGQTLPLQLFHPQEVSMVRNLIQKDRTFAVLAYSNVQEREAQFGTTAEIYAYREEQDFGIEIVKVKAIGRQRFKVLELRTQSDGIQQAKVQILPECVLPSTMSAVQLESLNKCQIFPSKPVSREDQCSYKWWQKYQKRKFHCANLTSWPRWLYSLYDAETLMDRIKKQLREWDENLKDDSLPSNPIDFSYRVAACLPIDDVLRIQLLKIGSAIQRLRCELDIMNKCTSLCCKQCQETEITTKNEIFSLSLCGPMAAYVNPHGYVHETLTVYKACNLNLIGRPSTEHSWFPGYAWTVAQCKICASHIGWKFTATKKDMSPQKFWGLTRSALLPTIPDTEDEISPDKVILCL
IKZF2, sequence (Q16531 whole entry partner): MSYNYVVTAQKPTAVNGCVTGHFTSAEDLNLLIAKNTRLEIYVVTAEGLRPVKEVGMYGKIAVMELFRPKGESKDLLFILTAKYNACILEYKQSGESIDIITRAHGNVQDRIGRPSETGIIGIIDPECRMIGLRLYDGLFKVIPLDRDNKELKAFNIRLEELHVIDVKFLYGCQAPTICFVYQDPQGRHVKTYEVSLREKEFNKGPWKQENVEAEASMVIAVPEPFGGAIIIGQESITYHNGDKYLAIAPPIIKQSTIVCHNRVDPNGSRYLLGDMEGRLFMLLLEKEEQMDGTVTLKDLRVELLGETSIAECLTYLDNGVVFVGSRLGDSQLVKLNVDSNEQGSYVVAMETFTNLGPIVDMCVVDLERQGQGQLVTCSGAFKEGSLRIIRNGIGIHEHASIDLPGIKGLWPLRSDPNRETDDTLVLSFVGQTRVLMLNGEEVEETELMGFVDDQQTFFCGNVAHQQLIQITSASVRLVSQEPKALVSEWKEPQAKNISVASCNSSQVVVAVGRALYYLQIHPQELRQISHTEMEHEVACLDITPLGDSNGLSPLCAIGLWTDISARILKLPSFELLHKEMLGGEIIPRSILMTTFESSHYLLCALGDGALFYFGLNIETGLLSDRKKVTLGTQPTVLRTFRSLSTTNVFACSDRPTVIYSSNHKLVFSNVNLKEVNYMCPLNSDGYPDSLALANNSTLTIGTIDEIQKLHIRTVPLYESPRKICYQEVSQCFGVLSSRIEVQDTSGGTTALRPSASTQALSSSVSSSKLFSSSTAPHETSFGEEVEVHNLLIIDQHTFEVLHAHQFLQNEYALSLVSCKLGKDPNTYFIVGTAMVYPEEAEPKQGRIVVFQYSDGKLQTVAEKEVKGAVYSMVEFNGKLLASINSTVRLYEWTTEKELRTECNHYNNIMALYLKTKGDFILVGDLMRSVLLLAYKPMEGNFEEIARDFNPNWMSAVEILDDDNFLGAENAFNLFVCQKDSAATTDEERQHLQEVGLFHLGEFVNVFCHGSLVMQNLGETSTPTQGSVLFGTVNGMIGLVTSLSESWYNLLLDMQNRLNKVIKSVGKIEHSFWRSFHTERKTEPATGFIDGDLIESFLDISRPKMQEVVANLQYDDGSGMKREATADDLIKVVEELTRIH

As for `CC(C)(O)Cn1cc(-c2cccc(CN3CCC4(CC3)COc3c4ccc4c3CN([C@H]3CCC(=O)NC3=O)C4=O)c2)cn1` [Compound A292, (S)-3-(1′-(3-(1-(2-hydroxy-2-methylpropyl)-1H-pyrazol-4-yl)benzyl)-6-oxo-6,8-dihydro-2H,7H-spiro[furo[2,3-e]isoindole-3,4′-piperidin]-7-yl)piperidine-2,6-dione], the DC50 was < 50 nM and the Dmax lay within 60 to 80%. The corresponding values for `CCOc1cccc(CN2CCC3(CC2)COc2c3ccc3c2CN(C2CCC(=O)NC2=O)C3=O)c1` (stereo not shown) [Compound A92, 3-(1′-(3-ethoxybenzyl)-6-oxo-6,8-dihydro-2H,7H-spiro[furo[2,3-e]isoindole-3,4′-piperidin]-7-yl)piperidine-2,6-dione] are 50 to 200 nM and 40 to 60%. The corresponding values for `O=C1CCC(N2Cc3c(ccc4c3OCC43CCN(Cc4ccc(F)c5ccccc45)CC3)C2=O)C(=O)N1` (stereo not shown) [Compound A36, 3-(1′-((4-fluoronaphthalen-1-yl)methyl)-6-oxo-6,8-dihydro-2H,7H-spiro[furo[2,3-e]isoindole-3,4′-piperidin]-7-yl)piperidine-2,6-dione] are 50 to 200 nM and 60 to 80%. Take `O=C1CCC(N2Cc3c(ccc4c3OCC43CCN(Cc4cnn(C5CCCCC5)c4)CC3)C2=O)C(=O)N1` (stereo not shown) [Compound A220, 3-(1′-((1-cyclohexyl-1H-pyrazol-4-yl)methyl)-6-oxo-6,8-dihydro-2H,7H-spiro[furo[2,3-e]isoindole-3,4′-piperidin]-7-yl)piperidine-2,6-dione]: the DC50 was > 500 nM and the Dmax is < 40%. The corresponding values for `Cn1cc2c(CN3CCC4(CC3)COc3c4ccc4c3CN(C3CCC(=O)NC3=O)C4=O)cccc2n1` (stereo not shown) [Compound A67, 3-(1′-((2-methyl-2H-indazol-4-yl)methyl)-6-oxo-6,8-dihydro-2H,7H-spiro[furo[2,3-e]isoindole-3,4′-piperidin]-7-yl)piperidine-2,6-dione] are 50 to 200 nM and 60 to 80%. Take `O=C1CCC(N2Cc3c(ccc4c3OCC43CCN(Cc4ncnn4-c4ccccc4)CC3)C2=O)C(=O)N1` (stereo not shown) [Compound A254, 3-(6-oxo-1′-((1-phenyl-1H-1,2,4-triazol-5-yl)methyl)-6,8-dihydro-2H,7H-spiro[furo[2,3-e]isoindole-3,4′-piperidin]-7-yl)piperidine-2,6-dione]: the DC50 was > 500 nM and the Dmax is < 40%. On to `O=C1CCC(N2Cc3c(ccc4c3OCC43CCN(Cc4cccc5cnccc45)CC3)C2=O)C(=O)N1` (stereo not shown) [Compound A39, 3-(1′-(isoquinolin-5-ylmethyl)-6-oxo-6,8-dihydro-2H,7H-spiro[furo[2,3-e]isoindole-3,4′-piperidin]-7-yl)piperidine-2,6-dione], for which the DC50 is < 50 nM and the Dmax was in the range of 60 to 80%.

For the compound `O=C1CCC(N2Cc3c(ccc4c3OCC43CCN(Cc4cccc5c4OCC5)CC3)C2=O)C(=O)N1` (stereo not shown) [Compound A224, 3-(1′-((2,3-dihydrobenzofuran-7-yl)methyl)-6-oxo-6,8-dihydro-2H,7H-spiro[furo[2,3-e]isoindole-3,4′-piperidin]-7-yl)piperidine-2,6-dione], the DC50 is 200 to 500 nM and the Dmax was 40 to 60%.

Consider `COCCn1cc(-c2cccc(CN3CCC4(CC3)COc3c4ccc4c3CN([C@H]3CCC(=O)NC3=O)C4=O)c2)cn1` [Compound A286, (S)-3-(1′-(3-(1-(2-methoxyethyl)-1H-pyrazol-4-yl)benzyl)-6-oxo-6,8-dihydro-2H,7H-spiro[furo[2,3-e]isoindole-3,4′-piperidin]-7-yl)piperidine-2,6-dione], for which the DC50 lay in the range of 50 to 200 nM and the maximal degradation (Dmax) lay in the range of 60 to 80%.

Regarding `O=C1CCC(N2Cc3c(ccc4c3OCC43CCN(Cc4cnn(Cc5ccc(Cl)cc5)c4)CC3)C2=O)C(=O)N1` (stereo not shown) [Compound A241, 3-(1′-((1-(4-chlorobenzyl)-1H-pyrazol-4-yl)methyl)-6-oxo-6,8-dihydro-2H,7H-spiro[furo[2,3-e]isoindole-3,4′-piperidin]-7-yl)piperidine-2,6-dione], the DC50 is < 50 nM and the Dmax is 60 to 80%. The corresponding values for `O=C1CCC(N2Cc3c(ccc4c3OCC43CCN(Cc4ccc5cnccc5c4)CC3)C2=O)C(=O)N1` (stereo not shown) [Compound A65, 3-(1′-(isoquinolin-6-ylmethyl)-6-oxo-6,8-dihydro-2H,7H-spiro[furo[2,3-e]isoindole-3,4′-piperidin]-7-yl)piperidine-2,6-dione] are > 500 nM and 40 to 60%.

Consider `COCCn1cc2ccc(CN3CCC4(CC3)COc3c4ccc4c3CN([C@H]3CCC(=O)NC3=O)C4=O)cc2n1` [Compound A287, (S)-3-(1′-((2-(2-methoxyethyl)-2H-indazol-6-yl)methyl)-6-oxo-6,8-dihydro-2H,7H-spiro[furo[2,3-e]isoindole-3,4′-piperidin]-7-yl)piperidine-2,6-dione], for which the DC50 is < 50 nM and the maximal degradation (Dmax) is 60 to 80%.

Consider `Cc1ccc2[nH]ncc2c1CN1CCC2(CC1)COc1c2ccc2c1CN(C1CCC(=O)NC1=O)C2=O` (stereo not shown) [Compound A143, 3-(1′-((5-methyl-1H-indazol-4-yl)methyl)-6-oxo-6,8-dihydro-2H,7H-spiro[furo[2,3-e]isoindole-3,4′-piperidin]-7-yl)piperidine-2,6-dione], for which the DC50 was < 50 nM and the Dmax was 60 to 80%. In the case of `O=C1CC[C@H](N2Cc3c(ccc4c3OCC43CCN(Cc4cccc(NC(=O)C(F)(F)F)c4)CC3)C2=O)C(=O)N1` [Compound A278, (S)-N-(3-((7-(2,6-dioxopiperidin-3-yl)-6-oxo-7,8-dihydro-2H,6H-spiro[furo[2,3-e]isoindole-3,4′-piperidin]-1′-yl)methyl)phenyl)-2,2,2-trifluoroacetamide], the half-maximal degradation concentration (DC50) is < 50 nM and the Dmax was > 80%. The corresponding values for `CC1(C)CCc2cccc(CN3CCC4(CC3)COc3c4ccc4c3CN(C3CCC(=O)NC3=O)C4=O)c2O1` (stereo not shown) [Compound A327, 3-(1′-((2,2-dimethylchroman-8-yl)methyl)-6-oxo-6,8-dihydro-2H,7H-spiro[furo[2,3-e]isoindole-3,4′-piperidin]-7-yl)piperidine-2,6-dione] are 50 to 200 nM and 60 to 80%. For the compound `Cn1nc(CN2CCC3(CC2)COc2c3ccc3c2CN(C2CCC(=O)NC2=O)C3=O)c2ccccc21` (stereo not shown) [Compound A226, 3-(1′-((1-methyl-1H-indazol-3-yl)methyl)-6-oxo-6,8-dihydro-2H,7H-spiro[furo[2,3-e]isoindole-3,4′-piperidin]-7-yl)piperidine-2,6-dione], the DC50 is > 500 nM and the Dmax lay in the range of 40 to 60%. On to `O=C1CCC(N2Cc3c(ccc4c3OCCC43CCNCC3)C2=O)C(=O)N1` (stereo not shown) [Compound A2, 3-(7′-oxo-2′,3′,7′,9′-tetrahydro-8′H-spiro[piperidine-4,4′-pyrano[2,3-e]isoindol]-8′-yl)piperidine-2,6-dione], for which the Dmax was < 40%.

`O=C1CCC(N2Cc3c(ccc4c3OCC43CCN(Cc4cnn(-c5cccc(Cl)c5)c4)CC3)C2=O)C(=O)N1` (stereo not shown) [Compound A313, 3-(1′-((1-(3-chlorophenyl)-1H-pyrazol-4-yl)methyl)-6-oxo-6,8-dihydro-2H,7H-spiro[furo[2,3-e]isoindole-3,4′-piperidin]-7-yl)piperidine-2,6-dione]: the DC50 lay in the range of 50 to 200 nM and the Dmax lay within 60 to 80%. The corresponding values for `O=C1CC[C@H](N2Cc3c(ccc4c3OCC43CCN(Cc4cccc(-c5cnn(C6CC6)c5)c4)CC3)C2=O)C(=O)N1` [Compound A268, (S)-3-(1′-(3-(1-cyclopropyl-1H-pyrazol-4-yl)benzyl)-6-oxo-6,8-dihydro-2H,7H-spiro[furo[2,3-e]isoindole-3,4′-piperidin]-7-yl)piperidine-2,6-dione] are < 50 nM and 60 to 80%. The corresponding values for `Cc1nn(C)cc1-c1cccc(CN2CCC3(CC2)COc2c3ccc3c2CN([C@H]2CCC(=O)NC2=O)C3=O)c1` [Compound A283, (S)-3-(1′-(3-(1,3-dimethyl-1H-pyrazol-4-yl)benzyl)-6-oxo-6,8-dihydro-2H,7H-spiro[furo[2,3-e]isoindole-3,4′-piperidin]-7-yl)piperidine-2,6-dione] are 50 to 200 nM and 60 to 80%.

Turning to `CC(F)(F)c1ccc(CN2CCC3(CC2)COc2c3ccc3c2CN(C2CCC(=O)NC2=O)C3=O)cc1` (stereo not shown) [Compound A30, 3-(1′-(4-(1,1-difluoroethyl)benzyl)-6-oxo-6,8-dihydro-2H,7H-spiro[furo[2,3-e]isoindole-3,4′-piperidin]-7-yl)piperidine-2,6-dione], the DC50 was > 500 nM and the maximal degradation (Dmax) is < 40%. Take `O=C1CCC(N2Cc3c(ccc4c3OCC43CCN(Cc4cc(F)cc5cc[nH]c45)CC3)C2=O)C(=O)N1` (stereo not shown) [Compound A110, 3-(1′-((5-fluoro-1H-indol-7-yl)methyl)-6-oxo-6,8-dihydro-2H,7H-spiro[furo[2,3-e]isoindole-3,4′-piperidin]-7-yl)piperidine-2,6-dione]: the DC50 is < 50 nM and the Dmax was > 80%.

Values taken from US20250215012A1, “IKZF2 DEGRADERS AND USES THEREOF” (REGENTS OF THE UNIVERSITY OF MICHIGAN, priority 2022, published 2025).
